Columns and labels:
PYR/PYL receptors = test: Receptor-mediated PP2C inhibition assay, all ABA receptors tested; assay type: biochemical, Arabidopsis; conditions: 10 μM; in the presence of all ABA receptors tested
Procedure: HAB1 and PYL proteins were expressed and purified as described previously (Park S Y, et al. (2009) Abscisic Acid Inhibits Type 2C Protein Phosphatases via the PYR/PYL Family of START Proteins. Science 324(5930):1068-1071), with minor modifications. To obtain GST-HAB1, -ABI1 and -ABI2 fusion proteins, the HAB1 cDNA was cloned into pGex-2T whereas ABI1 and ABI2 cDNAs were cloned into the vector pGex-4T-1. Expression was conducted in BL21[DE3]pLysS host cells. Transformed cells were pre-cultured overnight, transferred to LB medium and cultured at 30° C. to culture A600 of 0.5. The culture was then cooled on ice and MnCl2 added to 4 mM and IPTG added to 0.3 mM. After 16 hours incubation at 15° C., cells were harvested and recombinant proteins were purified on glutathione agarose as described previously (Park S Y, et al. (2009). To obtain 6×His-PYL receptor fusion proteins, receptor cDNAs for all 13 ABA receptors were cloned into the vector pET28 and expressed and purified as described previously (Mosquna A, et al. (2011) Potent and selective activation of abscisic acid receptors in vivo by mutational stabilization of their agonist-bound conformation. PNAS 108(51):20838-20843); this yielded soluble and functional protein (assessed using receptor-mediated PP2C inhibition assays) for all receptors except PYL7, PYL11 and PYL12. […]

Arabidopsis seeds = test: Arabidopsis seed germination inhibition; assay type: in vivo; conditions: pyr1/pyl1/pyl2/pyl4 quadruple mutant; 5 μM
Procedure: FIG. 5. Novel ABA agonists inhibit germination of Arabidopsis seeds more strongly than pyrabactin. (A) and (B) Comparison of seed germination inhibition by ABA agonists. (C) and (D) the effects of ABA and LC66C6 (also called quinabactin) on Arabidopsis ABA signaling- and biosynthesis-deficient mutants on germination (C) and seedling establishment (D). Seeds were sown on ½×MS agar plate containing chemicals, and were stored at 4° C. for 4 days, then transferred at 22±2° C. Photographs (A and C) and germination (B) or green cotyledon (D) scores were assessed after a 4-day incubation under continuous illumination. […] For Arabidopsis germination and hypocotyl growth inhibition analysis, seeds after-ripened about 4 weeks were surface-sterilized with a solution containing 5% NaClO and 0.05% Tween-20 for 10 minutes, and rinsed with water four times. Sterilized seeds were suspended with 0.1% agar and sowed on the 0.8% solidified agar medium containing ½ Murashige and Skoog (MS) salts (Sigma-Aldrich) in the presence of chemicals and were stored at 4° C. for 4 days, then transferred at 22° C. under the dark or light. Germination was determined after a 4-day incubation, whereas hypocotyl growth was photographed after 6-day incubation.

ABA-responsive genes = test: Quantitative RT-PCR of ABA-responsive genes in Arabidopsis; assay type: in vivo
Procedure: FIG. 9. LC66C6 induces numerous ABA-responsive genes. […] Ten-day old seedlings were treated with carrier solvent (DMSO) or either 25 μM ABA, pyrabactin or LC66C6 for 8 hours. Total RNA was then prepared labeled and hybridized to ATH1 microarrays. Data plotted are log 2 transformed average expression values for ˜13K probes that were detectable across all experiments. Data shown are averages determined from triplicate biological replicates. (C) and (D) show the expression of a reporter gene in different plant tissues after treatment with vehicle (DMSO), pyrabactin, LC66C6, or (+)-ABA.
Total RNA was isolated using Plant RNA purification reagent (Invitrogen, USA) according to the manufacturer's instructions. cDNA was synthesized from 1 μg of total RNA using the QantiTec reverse transcription kit (Qiagen, USA). Real-time PCR using Maxima® SYBR Green/Fluorescein qPCR Master Mix (Fermentas) was performed with the iQ5 real-time PCR detection system (Bio-Rad, Hercules, Calif.). The relative amounts of target mRNAs were determined using the relative standard curve method and were normalized by relative amount of internal control mRNA. Biological triplicate experiments were performed.

[1] = tested on: CYP707A ABA-hydroxylating enzymes; test: Growth and germination in CYP707A overexpressing and cyp707a double mutant plants; assay type: in vivo, Arabidopsis; conditions: 40 μM
Description: FIG. 12. LC66C6 sensitivity is not influenced by the CYP707A ABA-hydroxylating enzymes.

Chlamydomonas = test: Colony growth of Chlamydomonas with and without salinity and osmotic stress; assay type: in vivo; conditions: with and without salinity and osmotic stress
Procedure: FIG. 17. The effect of ABA and its agonists in Physcomitrella patens and Chlamydomonas. Protonemal growth images (A) and quantitative analysis (B) of the effects of ABA and agonists on Phsycomitrella patens. Protonema were grown on 200 μM of specific test chemical for 10 days. […] Pyrabactin bleached protonema. (C) The expression of ABA-responsive genes of Physcomitrella patens. Protonema were treated with 200 μM chemical solutions for 3 h. (D) Colony growth of Chlamydomonas on the chemical with salinity stress and osmotic stress. There was no effect of ABA and LC66C6 on the Chlamydomonas growth with and without stresses.

Structure (SMILES): CC1=CC(=O)CC(C)(C)C1(O)/C=C/C(C)=C\C(=O)O (single isomer, unassigned; (+)) [(+)-ABA, Abscisic acid]
- PPC2 enzyme activity of HBA1, ABI1, and ABI2 inhibited (PYR/PYL receptors): > 90%
- inhibition of germination in quadruple mutant (Arabidopsis seeds): inhibit germination in the quadruple mutant
- induction of MAPKKK18, RD29A, and RD29B mRNAs (ABA-responsive genes; Col and Ler ecotypes and pyr1, pyl1, ply2, pyl3 and pyl4 single mutants): induced
- expression of ABF3, GBF3, NCED3, and RD29A (ABA-responsive genes; Col wild-type plants): induced expression of ABF3, GBF3, NCED3, and RD29A in a dose dependent manner
- expression of ABF3, GBF3, NCED3, and RD29A (ABA-responsive genes; abi1-1 and PYR/PYL quadruple mutant plants): induction levels were impaired
- inhibition of plant growth and germination in plants that overexpress CYP707A ([1]; CYP707AOX vs wild-type): reduced
- inhibition of plant growth and germination in cyp707a double mutant ([1]; cyp707a double mutant vs wild-type): enhanced
- effect on growth of Chlamydomonas (Chlamydomonas): no effect

Source: patent publication US9345245B2, “Synthetic compounds for vegetative ABA responses” (THE REGENTS OF THE UNIVERSITY OF CALIFORNIA, priority 2012, dated 2016)
